{
  "source": "patent US10913727B2",
  "about": "“Modulators of the integrated stress pathway” (Calico Life Sciences LLC, priority 2016, dated 2021)",
  "data": [
    {"test_system": "HEK293T cells carrying the ATF4 luciferase reporter", "assay": "ATF4-Luc assay, in vitro model of Vanishing Cell White Matter Disease (VWMD)", "format": "cell-based", "details": "Homo sapiens, HEK-293T, 1 μg/mL tunicamycin, 7 hours, One Glo luminescence", "method_in_brief": "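Compound at 200 nM and tunicamycin at 1 μg/mL were given together for 7 h to HEK293T cells stably transduced with an ATF4 5′-UTR-driven firefly luciferase reporter. Read-out by luminescence, reported as EC50.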", "units": {"EC50": "nM"}, "values": [
      {"compound": "CCOc1ccsc1C(=O)NC12CC(NC(=O)COc3ccc(Cl)c(F)c3)(C1)C2", "note": "[Compound 551, N-{3-[2-(4-chloro-3-fluorophenoxy)acetamido]bicyclo[1.1.1]pentan-1-yl}-3-ethoxythiophene-2-carboxamide]", "EC50": "50 to 250"},
      {"compound": "O=C(COc1ccc(Cl)c(F)c1)NC12CCC(NC(=O)c3ccccn3)(CC1)C[C@@H]2O", "note": "[Compound 727, N-{(3S)-4-[2-(4-chloro-3-fluorophenoxy)acetamido]-3-hydroxybicyclo[2.2.2]octan-1-yl}pyridine-2-carboxamide]", "EC50": "< 50"},
      {"compound": "Cn1nnc2cc(C(=O)NC34CC(NC(=O)COc5ccc(Cl)c(F)c5)(C3)C4)ccc21", "note": "[Compound 785, N-{3-[2-(4-chloro-3-fluorophenoxy)acetamido]bicyclo[1.1.1]pentan-1-yl}-1-methyl-1H-benzotriazole-5-carboxamide]", "EC50": "> 2000"},
      {"compound": "O=C(COc1ccc(Cl)c(F)c1)NC12CCC(NC(=O)c3cnc(C(F)F)cn3)(CC1)CC2O", "note": "(stereo not drawn) [Compound 229, N-{4-[2-(4-chloro-3-fluorophenoxy)acetamido]-3-hydroxybicyclo[2.2.2]octan-1-yl}-5-(difluoromethyl)pyrazine-2-carboxamide]", "EC50": "50 to 250"},
      {"compound": "O=C(COc1ccc(F)c(F)c1)NC12CC(NC(=O)c3cnc(C(F)F)cn3)(C1)C2", "note": "[Compound 278, 5-(difluoromethyl)-N-{3-[2-(3,4-difluorophenoxy)acetamido]bicyclo[1.1.1]pentan-1-yl}pyrazine-2-carboxamide]", "EC50": "250 to 1000"},
      {"compound": "CCOc1ncccc1C(=O)NC12CC(NC(=O)COc3ccc(Cl)c(F)c3)(C1)C2", "note": "[Compound 861, N-{3-[2-(4-chloro-3-fluorophenoxy)acetamido]bicyclo[1.1.1]pentan-1-yl}-2-ethoxypyridine-3-carboxamide]", "EC50": "> 2000"},
      {"compound": "CC(O)c1ncc(C(=O)NC23CC(NC(=O)COc4ccc(Cl)c(F)c4)(C2)C3)s1", "note": "(stereo not drawn) [Compound 476, N-{3-[2-(4-chloro-3-fluorophenoxy)acetamido]bicyclo[1.1.1]pentan-1-yl}-2-(1-hydroxyethyl)-1,3-thiazole-5-carboxamide]", "EC50": "250 to 1000"},
      {"compound": "CCn1cc(C(=O)NC23CC(NC(=O)COc4ccc(Cl)c(F)c4)(C2)C3)c(C)n1", "note": "[Compound 825, N-{3-[2-(4-chloro-3-fluorophenoxy)acetamido]bicyclo[1.1.1]pentan-1-yl}-1-ethyl-3-methyl-1H-pyrazole-4-carboxamide]", "EC50": "250 to 1000"},
      {"compound": "Cc1cc(C)n2nc(C(=O)NC34CCC(NC(=O)COc5ccc(Cl)c(F)c5)(CC3)[C@@H](O)C4)nc2n1", "note": "[Compound 750, N-{(3S)-4-[2-(4-chloro-3-fluorophenoxy)acetamido]-3-hydroxybicyclo[2.2.2]octan-1-yl}-5,7-dimethyl[1,2,4]triazolo[1,5-a]pyrimidine-2-carboxamide]", "EC50": "> 2000"},
      {"compound": "Cn1ccc(C(=O)NC23CCC(NC(=O)COc4ccc(Cl)c(F)c4)(CC2)C(O)C3)n1", "note": "(stereo not drawn) [Compound 361, N-{4-[2-(4-chloro-3-fluorophenoxy)acetamido]-3-hydroxybicyclo[2.2.2]octan-1-yl}-1-methyl-1H-pyrazole-3-carboxamide]", "EC50": "50 to 250"},
      {"compound": "Cn1nc(C(=O)NC23CC(NC(=O)COc4ccc(Cl)c(F)c4)(C2)C3)c2c1CCC2", "note": "[Compound 877, N-{3-[2-(4-chloro-3-fluorophenoxy)acetamido]bicyclo[1.1.1]pentan-1-yl}-1-methyl-1,4,5,6-tetrahydrocyclopenta[c]pyrazole-3-carboxamide]", "EC50": "> 2000"},
      {"compound": "NS(=O)(=O)c1cccc(C(=O)NC23CC(NC(=O)COc4ccc(Cl)c(F)c4)(C2)C3)c1", "note": "[Compound 768, N-{3-[2-(4-chloro-3-fluorophenoxy)acetamido]bicyclo[1.1.1]pentan-1-yl}-3-sulfamoylbenzamide]", "EC50": "> 2000"},
      {"compound": "O=C(COc1ccc(Cl)c(F)c1)NC12CC(NC(=O)c3cc4nccnc4s3)(C1)C2", "note": "[Compound 886, N-{3-[2-(4-chloro-3-fluorophenoxy)acetamido]bicyclo[1.1.1]pentan-1-yl}thieno[2,3-b]pyrazine-6-carboxamide]", "EC50": "250 to 1000"},
      {"compound": "Cc1cnc(C(=O)NC23CC(NC(=O)COc4ccc(Cl)c(Cl)c4)(C2)C3)cn1", "note": "[Compound 131, N-{3-[2-(3,4-dichlorophenoxy)acetamido]bicyclo[1.1.1]pentan-1-yl}-5-methylpyrazine-2-carboxamide]", "EC50": "50 to 250"},
      {"compound": "O=C(COc1ccc(Cl)c(F)c1)NC12CC(NC(=O)c3cc(-c4ccc(Cl)cc4)on3)(C1)C2", "note": "[Compound 113, N-{3-[2-(4-chloro-3-fluorophenoxy)acetamido]bicyclo[1.1.1]pentan-1-yl}-5-(4-chlorophenyl)-1,2-oxazole-3-carboxamide]", "EC50": "50 to 250"},
      {"compound": "Cc1cc(C(=O)NC23CC(NC(=O)COc4ccc(Cl)c(F)c4)(C2)C3)c(C)n1C1CC1", "note": "[Compound 842, N-{3-[2-(4-chloro-3-fluorophenoxy)acetamido]bicyclo[1.1.1]pentan-1-yl}-1-cyclopropyl-2,5-dimethyl-1H-pyrrole-3-carboxamide]", "EC50": "> 2000"},
      {"compound": "Cn1nc(C(F)(F)F)cc1C(=O)NC12CC(NC(=O)COc3ccc(Cl)c(F)c3)(C1)C2", "note": "[Compound 582, N-{3-[2-(4-chloro-3-fluorophenoxy)acetamido]bicyclo[1.1.1]pentan-1-yl}-1-methyl-3-(trifluoromethyl)-1H-pyrazole-5-carboxamide]", "EC50": "50 to 250"},
      {"compound": "O=C(COc1ccc(Cl)c(F)c1)NC12CCC(NC(=O)c3ccc(OC(F)F)nc3)(C1)C2", "note": "[Compound 574, N-{4-[2-(4-chloro-3-fluorophenoxy)acetamido]bicyclo[2.1.1]hexan-1-yl}-6-(difluoromethoxy)pyridine-3-carboxamide]", "EC50": "50 to 250"},
      {"compound": "N#Cc1ccc(C(=O)NC23CC(NC(=O)COc4ccc(Cl)c(F)c4)(C2)C3)s1", "note": "[Compound 885, N-{3-[2-(4-chloro-3-fluorophenoxy)acetamido]bicyclo[1.1.1]pentan-1-yl}-5-cyanothiophene-2-carboxamide]", "EC50": "> 2000"},
      {"compound": "Cc1ccc(C(=O)NC23CCC(NC(=O)COc4ccc(Cl)c(F)c4)(CC2)C(O)C3)s1", "note": "(stereo not drawn) [Compound 621, N-{4-[2-(4-chloro-3-fluorophenoxy)acetamido]-3-hydroxybicyclo[2.2.2]octan-1-yl}-5-methylthiophene-2-carboxamide]", "EC50": "50 to 250"},
      {"compound": "Cc1cc(C(=O)NC23CCC(NC(=O)COc4ccc(F)c(F)c4)(CC2)C(=O)C3)on1", "note": "[Compound 461, N-{4-[2-(3,4-difluorophenoxy)acetamido]-3-oxobicyclo[2.2.2]octan-1-yl}-3-methyl-1,2-oxazole-5-carboxamide]", "EC50": "1000 to 2000"},
      {"compound": "NS(=O)(=O)c1ccc(C(=O)NC23CC(NC(=O)COc4ccc(Cl)c(F)c4)(C2)C3)cn1", "note": "[Compound 325, N-{3-[2-(4-chloro-3-fluorophenoxy)acetamido]bicyclo[1.1.1]pentan-1-yl}-6-sulfamoylpyridine-3-carboxamide]", "EC50": "> 2000"},
      {"compound": "O=C(COc1ccc(Cl)c(F)c1)NC12CCC(NC(=O)c3ccc(F)cn3)(CC1)C(O)C2", "note": "(stereo not drawn) [Compound 168, N-{4-[2-(4-chloro-3-fluorophenoxy)acetamido]-2-hydroxybicyclo[2.2.2]octan-1-yl}-5-fluoropyridine-2-carboxamide]", "EC50": "50 to 250"},
      {"compound": "Cc1nccnc1NC12CC(NC(=O)COc3ccc(Cl)c(F)c3)(C1)C2", "note": "[Compound 678, 2-(4-chloro-3-fluorophenoxy)-N-{3-[(3-methylpyrazin-2-yl)amino]bicyclo[1.1.1]pentan-1-yl}acetamide]", "EC50": "1000 to 2000"},
      {"compound": "Cc1cc(C(=O)NC23CC(NC(=O)COc4ccc(Cl)c(F)c4)(C2)C3)cnc1C", "note": "[Compound 856, N-{3-[2-(4-chloro-3-fluorophenoxy)acetamido]bicyclo[1.1.1]pentan-1-yl}-5,6-dimethylpyridine-3-carboxamide]", "EC50": "250 to 1000"},
      {"compound": "CCCn1ccc(C(=O)NC23CC(NC(=O)COc4ccc(Cl)c(F)c4)(C2)C3)n1", "note": "[Compound 343, N-{3-[2-(4-chloro-3-fluorophenoxy)acetamido]bicyclo[1.1.1]pentan-1-yl}-1-propyl-1H-pyrazole-3-carboxamide]", "EC50": "50 to 250"},
      {"compound": "Cc1ncc(C(=O)NC23CC(NC(=O)COc4ccc(Cl)c(F)c4)(C2)C3)nc1C", "note": "[Compound 196, N-{3-[2-(4-chloro-3-fluorophenoxy)acetamido]bicyclo[1.1.1]pentan-1-yl}-5,6-dimethylpyrazine-2-carboxamide]", "EC50": "250 to 1000"},
      {"compound": "CCCc1nc(C(=O)NC23CCC(NC(=O)COc4ccc(Cl)c(F)c4)(CC2)C(O)C3)cs1", "note": "(stereo not drawn) [Compound 502, N-{4-[2-(4-chloro-3-fluorophenoxy)acetamido]-3-hydroxybicyclo[2.2.2]octan-1-yl}-2-propyl-1,3-thiazole-4-carboxamide]", "EC50": "< 50"},
      {"compound": "CCN(CC)c1cccc(C(=O)NC23CC(NC(=O)COc4ccc(Cl)c(F)c4)(C2)C3)c1", "note": "[Compound 543, N-{3-[2-(4-chloro-3-fluorophenoxy)acetamido]bicyclo[1.1.1]pentan-1-yl}-3-(diethylamino)benzamide]", "EC50": "> 2000"},
      {"compound": "Cc1nn(C)cc1C(=O)NC12CC(NC(=O)COc3ccc(Cl)c(F)c3)(C1)C2", "note": "[Compound 846, N-{3-[2-(4-chloro-3-fluorophenoxy)acetamido]bicyclo[1.1.1]pentan-1-yl}-1,3-dimethyl-1H-pyrazole-4-carboxamide]", "EC50": "1000 to 2000"},
      {"compound": "O=C(COc1ccc(Cl)c(F)c1)NC12CCC(NC(=O)c3coc(C(F)(F)F)c3)(CC1)CC2O", "note": "(stereo not drawn) [Compound 566, N-{4-[2-(4-chloro-3-fluorophenoxy)acetamido]-3-hydroxybicyclo[2.2.2]octan-1-yl}-5-(trifluoromethyl)furan-3-carboxamide]", "EC50": "< 50"},
      {"compound": "O=C(COc1ccc(Cl)c(F)c1)NC12CC(NC(=O)c3ccc4ncsc4c3)(C1)C2", "note": "[Compound 773, N-{3-[2-(4-chloro-3-fluorophenoxy)acetamido]bicyclo[1.1.1]pentan-1-yl}-1,3-benzothiazole-6-carboxamide]", "EC50": "> 2000"},
      {"compound": "COc1cccc(C(=O)NC23CC(NC(=O)COc4ccc(Cl)c(F)c4)(C2)C3)c1", "note": "[Compound 301, N-{3-[2-(4-chloro-3-fluorophenoxy)acetamido]bicyclo[1.1.1]pentan-1-yl}-3-methoxybenzamide]", "EC50": "250 to 1000"}
    ]}
  ]
}
